From US20070054902A1, “Isoxazole derivatives as peroxisome proliferator-activated receptors agonists” (SHIONOGI & CO., LTD., priority 2003, published 2007)

Experiments:
human PPARδ (hPPARδ) = molecular target: T1, human PPARδ (hPPARδ) (Homo sapiens, UniProt Q03181); test: Test for transcriptional activity of PPARδ (GAL4 chimeric transcription-factor reporter assay in CHO cells); type: cell-based; details: GAL4-hPPARδ LBD chimeric reporter in CHO cells
T1 construct: δ:aa 139-C-end; expressed in transfected cells
T1 sequence (Q03181 139-441 limits assumed): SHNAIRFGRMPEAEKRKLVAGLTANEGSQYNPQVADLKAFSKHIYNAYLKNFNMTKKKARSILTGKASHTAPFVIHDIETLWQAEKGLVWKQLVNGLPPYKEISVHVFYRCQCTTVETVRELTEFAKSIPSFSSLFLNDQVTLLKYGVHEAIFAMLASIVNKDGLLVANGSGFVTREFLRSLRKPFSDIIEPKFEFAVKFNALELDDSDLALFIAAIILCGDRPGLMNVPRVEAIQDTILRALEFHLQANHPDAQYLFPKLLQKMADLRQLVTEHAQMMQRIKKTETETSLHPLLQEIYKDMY
Source text: A chimeric transcription-factor assay, which is commonly used to detect nuclear receptor activity, was employed to measure PPAR transcriptional activity. Specifically, two plasmids, one that expresses the fusion protein of DNA binding domain of yeast transcription factor GAL4 and a ligand binding domain of a receptor, and a reporter plasmid were transiently transfected to CHO cells. The activity of the promoter containing a recognition sequence of GAL4 coded on the reporter plasmid was used as a parameter to estimate the activity of the receptor.
Then, each obtained cDNA-fragment was subcloned into pBIND vector (Promega) to construct a plasmid expressing the fusion protein with DNA binding domain of yeast transcription factor. GAL4. pG51uc vector (Promega) was used as a reporter plasmid.
Cell culturing and transfection: CHO cells were cultured in 10% FBS-αMEM. With a 96-well plate (Costar), CHO cells, that were dispersed with trypsin treatment, 20000 cells per well and the two plasmids obtained by the above procedure, 25 ng per well, were transfected with FuGene Reagent (Roche) by following the instruction of the manufacture.
Measurement of the transcriptional activity: CHO cells 100 μl per well, which were transfected as above, were dispensed into the wells in which a test compound dissolved in DMSO 0.5 μl was spotted in advance. After the cells and a test compound were cultured together for 24 hours in a CO2 incubator, the luciferase activity was measured by adding luciferase substrates, PicaGene LT2.0 (Toyo ink) 100 μl per well. LUMINOUS CT9000D (DIA-IATRON) is used to measure the activity.

CYP2C9 = molecular target: T2, CYP2C9 (Homo sapiens, UniProt P11712); test: Test for inhibition of CYP2C9 enzyme (tolbutamide 4-position hydration, human liver microsomes); type: in vitro ADME; details: pH 7.4, probe tolbutamide (14C labeled), 5 µM, human liver microsomes 0.25 mg/ml, 5 μM tolbutamide, 37° C., solvent control = 100%, read-out: Residual activity (%) CYP2C9
T2 construct: the protein concentration, 0.25 mg/ml (human liver microsomes, 15 pol, Lot. 210296, XenoTech); tissue XenoTech Lot; 210296; host or cells: human liver microsomes (pooled)
T2 sequence (P11712 whole entry): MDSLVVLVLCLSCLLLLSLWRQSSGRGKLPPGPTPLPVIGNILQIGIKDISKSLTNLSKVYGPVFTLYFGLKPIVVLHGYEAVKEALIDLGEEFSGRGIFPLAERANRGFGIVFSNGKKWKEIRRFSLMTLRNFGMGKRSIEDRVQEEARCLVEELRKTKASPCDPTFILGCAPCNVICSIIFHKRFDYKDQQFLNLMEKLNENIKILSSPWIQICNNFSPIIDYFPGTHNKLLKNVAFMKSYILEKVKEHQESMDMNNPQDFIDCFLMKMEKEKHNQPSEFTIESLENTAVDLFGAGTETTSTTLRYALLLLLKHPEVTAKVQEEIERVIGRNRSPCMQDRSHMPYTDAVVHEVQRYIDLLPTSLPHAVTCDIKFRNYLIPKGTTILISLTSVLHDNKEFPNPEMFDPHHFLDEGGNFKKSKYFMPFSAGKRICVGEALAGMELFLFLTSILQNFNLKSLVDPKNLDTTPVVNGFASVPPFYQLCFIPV
Protocol: The reaction condition is as below. A substrate, 5 μM Tolbutamide (14C labeled compound); the reaction time, 30 minutes; the reaction temperature, 37° C.; the protein concentration, 0.25 mg/ml (human liver microsomes, 15 pol, Lot. 210296, XenoTech).
To the HEPES Buffer (pH 7.4), is added the protein (human liver microsomes), a drug solution and a substrate with the composition as the above. NADPH, which is a coenzyme of the reaction, is added thereto to start the reaction. After reacting for the fixed hours, 2N hydrochloric acid solution is added thereto and the reaction is stopped by removing protein. The remaining substrate drug and the generating metabolite are extracted with chloroform. The solvent is removed and the residue is redissolved in methanol. This solution was spotted on TLC, developed with chloroform:methanol: acetic acid=90:10:1, contacted on the imaging plate for about 14-20 hours and analyzed by BAS2000. As to the generation activity of the metabolite, Tolbutamide 4-potition hydration body, the activity in case that the solvent dissolving a drug is added to the reaction assay is used as a control (100%). The residual activity (%) in case that the test drug solution is added to the reaction is calculated.

[1] = 24 hours, concentration showing 1/2 of maximum luciferase activity (Table 166)

melting point [°C] | EC50 (human PPARδ (hPPARδ); [1]) [nM] | activity at 30 min (CYP2C9) [%] | EC50 (human PPARδ (hPPARδ); 24 hours (Table 168)) [nM] | SMILES
105 to 107 | – | – | – | COCc1c(COc2ccc(OCC(=O)O)c(C)c2)noc1-c1ccc(C(F)(F)F)cc1 [α-5-1, {4-[4-Methoxymethyl-5-(4-trifluoromethylphenyl)-isoxazole-3-ylmethoxy]-2-methyl-phenoxy}-acetic acid]
133 to 134 | – | – | – | COC(=O)COc1ccc(C(=O)CCc2noc(-c3ccc(C(F)(F)F)cc3)c2C)cc1C [α-6-3-1, (2-Methyl-4-{3-[4-methyl-5-(4-trifluoromethylphenyl)-isoxazole-3-yl]-propionyl}-phenoxy)-acetic acid methyl ester]
191 to 194 | – | – | – | Cc1cc(C(=O)CCc2noc(-c3ccc(C(F)(F)F)cc3)c2C)ccc1OCC(=O)O [α-6-4-1, (2-Methyl-4-{3-[4-methyl-5-(4-trifluoromethylphenyl)-isoxazole-3-yl]-propionyl}-phenoxy)-acetic acid]
203 to 204.5 | 9.5 | – | – | Cc1cc(SCc2noc(-c3ccc(C(F)(F)F)cc3)c2C)ccc1Cc1noc(=O)[nH]1 [α-7-3-1, 3-[2-methyl-4-[4-methyl-5-(4-trifluoromethylphenyl)isoxazole-3-ylmethylsulfanil]benzil]-4H-[1,2,4]oxadiazole-5-on]
129 to 131 | 9.9 | – | – | Cc1cc(SCc2noc(-c3ccc(C(F)(F)F)cc3)c2C)ccc1OCC(=O)O [β-1-3]
157 to 159 | 11 | – | – | Cc1cc(SCc2noc(-c3ccc(Cl)cc3)c2C)ccc1OCC(=O)O [β-1-8]
105 to 107 | 1.5 | – | – | COCc1c(CSc2ccc(OCC(=O)O)c(C)c2)noc1-c1ccc(C(F)(F)F)cc1 [β-1-15]
261 to 262.5 | – | – | – | Cc1c(COc2ccc(C=CC(=O)O)cc2F)noc1-c1ccc(C(F)(F)F)cc1 [β-2-15, 3-{3-Fluoro-4-[4-methyl-5-(4-trifluoromethylphenyl)isoxazole-3-ylmethoxy]phenyl}acrylic acid]
179.5 to 181.5 | – | 47 | 35 | Cc1cc(SCc2cc(-c3ccc(C(F)(F)F)cc3)on2)ccc1/C=C/C(=O)O [β-2-38]
159 to 160 | – | – | – | Cc1c(COc2ccc3c(ccn3CC(=O)O)c2)noc1-c1ccc(C(F)(F)F)cc1 [β-3-1, {5-[4-Methyl-5-(4 trifluoromethylphenyl)isoxazole-3-ylmethoxy]indole-1-yl}acetic acid]
139 to 141 | 16 | – | – | Cc1c(CSc2ccc3c(ccn3CC(=O)O)c2)noc1-c1ccc(C(F)(F)F)cc1 [β-4-1, {5-[4-Methyl-5-(4-trifluoromethylphenyl)isoxazole-3-ylmethylsulfanil]indole-1-yl}acetic acid]
139 to 141 | 14 | – | – | Cc1c(CSc2ccc(-c3sccc3C(=O)O)cc2)noc1-c1ccc(C(F)(F)F)cc1 [β-5-1, 2-{4-[4-Methyl-5-(4-trifluoromethylphenyl)isoxazole-3-ylmethylsulfanil]phenyl}thiophene-3-carboxylic acid]
